# Target: T1, Human VPS34 (Homo sapiens, UniProt Q8NEB9)
# T1 construct: GST (N); host or cells: SF9 insect cells (baculovirus)
# Test: Human VPS34 Enzyme Assay (Adapta TR-FRET)
# Type: biochemical
# Conditions: compound at 1.111 μM; read-out: Average VPS34 % INH @ 1.111 μM
# Method: VPS34 (accession number GB:BC033004) was cloned into pDEST20-Thombin as N-terminal GST tagged fusion proteins using the Gateway system (Invitrogen, catalog#11804-013). The sequences were verified before recombinant protein expression using the Baculovirus Expression System with Gateway® Technology.
# For expression VPS34 was infected at 1MOI in SF9 cells and harvested 72 hours post infection.
# For purification, VPS34 is purified by Glutathione Sepharose 4 Fast Flow (GE Healthcare #17-5132-03) followed by HiTrap Q (GE Healthcare #17-1153-01).
# Human VPS34 Enzyme Assay Method
# 100 nL compounds in DMSO are added to wells of a 384 well microtitre plate (Greiner 780076). At room temperature: 5 ul VPS34 reaction buffer (Invitrogen Assay Buffer Q (diluted 1 in 5 with nanopure water) plus 2 mM DTT and 2 mM MnCl2) containing ATP (20 uM, Promega) and 200 uM PI-PS substrate (Invitrogen PV5122) is added followed immediately by 5 ul VPS34 reaction buffer (as above) containing VPS34 (5 nM, Millennium Protein Sciences Group) and the mixture is incubated with shaking at room temperature for 1 hour. Then 5 ul VPS34 stop-detect mix (as per Invitrogen Adapta Assay kit (PV5009) instructions (contains kinase quench buffer, TR-FRET buffer, Adapta Eu anti-ADP antibody and Alexa Fluor 647 ADP tracer)) is added to quench the reaction. The plates are then incubated for 30 minutes at room temperature with shaking and then read on a BMG PheraStar Plus reader.
# 3) VPS34 is assayed using Adapta™ Universal Kinase Assay Kit (Invitrogen).
# T1 sequence (Q8NEB9 whole entry): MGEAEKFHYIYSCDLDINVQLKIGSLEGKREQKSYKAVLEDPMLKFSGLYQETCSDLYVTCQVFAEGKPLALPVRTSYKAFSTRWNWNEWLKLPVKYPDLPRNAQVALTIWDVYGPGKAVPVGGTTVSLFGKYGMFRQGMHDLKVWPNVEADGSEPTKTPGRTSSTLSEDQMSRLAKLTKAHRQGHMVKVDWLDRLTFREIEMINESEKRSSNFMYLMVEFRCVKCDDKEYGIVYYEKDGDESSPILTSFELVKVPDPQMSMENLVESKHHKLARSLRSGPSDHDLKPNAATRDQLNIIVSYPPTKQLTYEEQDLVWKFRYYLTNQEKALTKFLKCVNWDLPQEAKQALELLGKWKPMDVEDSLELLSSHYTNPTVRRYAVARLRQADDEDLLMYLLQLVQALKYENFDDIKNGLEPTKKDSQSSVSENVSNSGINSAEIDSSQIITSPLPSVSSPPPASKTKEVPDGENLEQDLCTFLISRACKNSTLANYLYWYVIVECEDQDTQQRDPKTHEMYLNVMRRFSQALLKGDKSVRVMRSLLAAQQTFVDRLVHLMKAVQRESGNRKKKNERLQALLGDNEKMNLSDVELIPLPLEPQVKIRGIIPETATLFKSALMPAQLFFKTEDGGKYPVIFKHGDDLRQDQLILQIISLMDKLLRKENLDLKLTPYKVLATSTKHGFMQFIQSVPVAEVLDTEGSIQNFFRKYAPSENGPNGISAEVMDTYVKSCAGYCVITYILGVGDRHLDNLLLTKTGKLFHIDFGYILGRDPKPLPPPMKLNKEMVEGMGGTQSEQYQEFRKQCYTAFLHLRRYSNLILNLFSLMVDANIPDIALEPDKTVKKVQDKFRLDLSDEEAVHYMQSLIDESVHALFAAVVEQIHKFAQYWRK
row,inhibition at 1.111 µM [%],Compound
1,51,"CC(=O)Nc1cc(-c2nc(C(=O)NC[C@@H](C)O)c(-c3ccccc3Cl)o2)c(C)cn1 (stereo in doubt) [Compound I-62, 2-(2-acetamido-5-methylpyridin-4-yl)-5-(2-chlorophenyl)-N-(2-hydroxypropyl)-1,3-oxazole-4-carboxamide]"
2,131,"CC(=O)Nc1cc(-c2cc(C(=O)NC[C@@H](C)O)c(-c3ccccc3Cl)o2)c(C)cn1 (stereo in doubt) [Compound I-66, 5-(2-acetamido-5-methylpyridin-4-yl)-2-(2-chlorophenyl)-N-(2-hydroxypropyl)-3-furamide]"
3,120,"CC(=O)Nc1cc(-c2cc(C(N)=O)c(-c3ccccc3Cl)o2)ccn1 [Compound I-1, 5-[2-(acetylamino)pyridin-4-yl]-2-(2-chlorophenyl)-3-furamide]"
4,124,"CC(=O)Nc1cc(-c2cc(C(=O)O)c(-c3ccccc3Cl)o2)ccn1 [Compound I-2, 5-[2-(acetylamino)pyridin-4-yl]-2-(2-chlorophenyl)-3-furoic acid]"
5,112,"CC(=O)Nc1cc(-c2nc(C(N)=O)c(-c3ccccc3Cl)o2)c(C)cn1 [Compound I-3, 2-[2-(acetylamino)-5-methylpyridin-4-yl]-5-(2-chlorophenyl)-1,3-oxazole-4-carboxamide]"
6,118,"CC(=O)Nc1cc(-c2nc(-c3nnc[nH]3)c(-c3ccccc3Cl)o2)c(C)cn1 [Compound I-4, N-{4-[5-(2-chlorophenyl)-4-(4H-1,2,4-triazol-3-yl)-1,3-oxazol-2-yl]-5-methylpyridin-2-yl}acetamide]"
7,108,"CC(=O)Nc1cc(-c2nc(-c3ccccc3Cl)c(C(N)=O)o2)c(C)cn1 [Compound I-5, 2-[2-(acetylamino)-5-methylpyridin-4-yl]-4-(2-chlorophenyl)-1,3-oxazole-5-carboxamide]"
8,99,"CC(=O)Nc1cc(-c2nc(C(=O)O)c(-c3ccccc3Cl)o2)c(C)cn1 [Compound I-6, 2-[2-(acetylamino)-5-methylpyridin-4-yl]-5-(2-chlorophenyl)-1,3-oxazole-4-carboxylic acid]"
9,147,"CC(=O)Nc1cc(-c2cc(-c3nnc[nH]3)c(-c3cc(CN(C)C)ccc3Cl)o2)c(C)cn1 [Compound I-7, N-{4-[5-{2-chloro-5-[(dimethylamino)methyl]phenyl}-4-(4H-1,2,4-triazol-3-yl)-2-furyl]-5-methylpyridin-2-yl}acetamide]"
10,7,"CC(=O)Nc1ccc(-c2nc(-c3nnc[nH]3)c(-c3ccccc3Cl)o2)cc1 [Compound I-8, N-{4-[5-(2-chlorophenyl)-4-(4H-1,2,4-triazol-3-yl)-1,3-oxazol-2-yl]phenyl}acetamide]"
11,64,"CC(=O)Nc1cc(-c2nc(C(=O)NCc3ccco3)c(-c3ccccc3Cl)o2)c(C)cn1 [Compound I-9, 2-(2-acetamido-5-methylpyridin-4-yl)-5-(2-chlorophenyl)-N-(2-furylmethyl)-1,3-oxazole-4-carboxamide]"
12,132,"CC(=O)Nc1cc(-c2nc(-c3ncco3)c(-c3ccccc3Cl)o2)c(C)cn1 [Compound I-10, N-{4-[5′-(2-chlorophenyl)-2,4′-bi-1,3-oxazol-2′-yl]-5-methylpyridin-2-yl}acetamide]"
13,22,"CC(=O)Nc1cc(-c2nc(C(=O)NCCC(C)C)c(-c3ccccc3Cl)o2)c(C)cn1 [Compound I-11, 2-(2-acetamido-5-methylpyridin-4-yl)-5-(2-chlorophenyl)-N-(3-methylbutyl)-1,3-oxazole-4-carboxamide]"
14,61,"CC(=O)Nc1cc(-c2cc(C(=O)NCCn3ccnc3)c(-c3ccccc3Cl)o2)c(C)cn1 [Compound I-12, 5-(2-acetamido-5-methylpyridin-4-yl)-2-(2-chlorophenyl)-N-[2-(1H-imidazol-1-yl)ethyl]-3-furamide]"
15,95,"CC(=O)Nc1cc(-c2nc(C(=O)NCCCCO)c(-c3ccccc3Cl)o2)c(C)cn1 [Compound I-13, 2-(2-acetamido-5-methylpyridin-4-yl)-5-(2-chlorophenyl)-N-(4-hydroxybutyl)-1,3-oxazole-4-carboxamide]"
16,88,"CC(=O)Nc1cc(-c2cc(C(=O)NC3CCC3)c(-c3ccccc3Cl)o2)c(C)cn1 [Compound I-14, 5-(2-acetamido-5-methylpyridin-4-yl)-2-(2-chlorophenyl)-N-cyclobutyl-3-furamide]"

row,inhibition at 1.111 µM [%],Compound
1,103,"CC(=O)Nc1cc(-c2cc(C(=O)Nc3nccs3)c(-c3ccccc3Cl)o2)c(C)cn1 [Compound I-15, 5-(2-acetamido-5-methylpyridin-4-yl)-2-(2-chlorophenyl)-N-(1,3-thiazol-2-yl)-3-furamide]"
2,131,"CC(=O)Nc1cc(-c2nc(-c3cc(CN4CCCC4)ccc3Cl)c(-c3nnc[nH]3)o2)c(C)cn1 [Compound I-16, N-(4-{4-[2-chloro-5-(pyrrolidin-1-ylmethyl)phenyl]-5-(4H-1,2,4-triazol-3-yl)-1,3-oxazol-2-yl}-5-methylpyridin-2-yl)acetamide]"
3,127,"CC(=O)Nc1cc(-c2cc(-c3nnc[nH]3)c(N3CCCS3(=O)=O)o2)c(C)cn1 [Compound I-17, N-{4-[5-(1,1-dioxidoisothiazolidin-2-yl)-4-(4H-1,2,4-triazol-3-yl)-2-furyl]-5-methylpyridin-2-yl}acetamide]"
4,120,"O=C(Nc1cc(-c2nc(-c3nnc[nH]3)c(-c3ccccc3Cl)o2)ccn1)C1CC1 [Compound I-18, N-{4-[5-(2-chlorophenyl)-4-(4H-1,2,4-triazol-3-yl)-1,3-oxazol-2-yl]pyridin-2-yl}cyclopropanecarboxamide]"
5,48,"CC(=O)Nc1cc(-c2cc(C(=O)Nc3ccccc3)c(-c3ccccc3Cl)o2)c(C)cn1 [Compound I-19, 5-(2-acetamido-5-methylpyridin-4-yl)-2-(2-chlorophenyl)-N-phenyl-3-furamide]"
6,37,"CC(=O)Nc1cc(-c2nc(C(=O)NCc3ccccn3)c(-c3ccccc3Cl)o2)c(C)cn1 [Compound I-20, 2-(2-acetamido-5-methylpyridin-4-yl)-5-(2-chlorophenyl)-N-(pyridin-2-ylmethyl)-1,3-oxazole-4-carboxamide]"
7,25,"CC(=O)Nc1cc(-c2nc(C(=O)NC(C)C)c(-c3ccccc3Cl)o2)c(C)cn1 [Compound I-21, 2-(2-acetamido-5-methylpyridin-4-yl)-5-(2-chlorophenyl)-N-isopropyl-1,3-oxazole-4-carboxamide]"
8,110,"COC(CNC(=O)c1cc(-c2cc(NC(C)=O)ncc2C)oc1-c1ccccc1Cl)OC [Compound I-22, 5-(2-acetamido-5-methylpyridin-4-yl)-2-(2-chlorophenyl)-N-(2,2-dimethoxyethyl)-3-furamide]"
9,139,"CC(=O)Nc1cc(-c2cc(-c3nnc[nH]3)c(-c3ccccc3Cl)o2)c(C)cn1 [Compound I-23, N-{4-[5-(2-chlorophenyl)-4-(4H-1,2,4-triazol-3-yl)-2-furyl]-5-methylpyridin-2-yl}acetamide]"
10,102,"CC(=O)Nc1cc(-c2cc(C(=O)NCCCn3ccnc3)c(-c3ccccc3Cl)o2)c(C)cn1 [Compound I-24, 5-(2-acetamido-5-methylpyridin-4-yl)-2-(2-chlorophenyl)-N-[3-(1H-imidazol-1-yl)propyl]-3-furamide]"
11,41,"CC(=O)Nc1cc(-c2nc(C(=O)NCCOCCO)c(-c3ccccc3Cl)o2)c(C)cn1 [Compound I-25, 2-(2-acetamido-5-methylpyridin-4-yl)-5-(2-chlorophenyl)-N-[2-(2-hydroxyethoxy)ethyl]-1,3-oxazole-4-carboxamide]"
12,129,"CC(=O)Nc1cc(-c2cc(-c3nnc[nH]3)c(N3CCCC(N(C)C)C3)o2)c(C)cn1 (centres unmarked) [Compound I-26, N-(4-{5-[3-(dimethylamino)piperidin-1-yl]-4-(4H-1,2,4-triazol-3-yl)-2-furyl}-5-methylpyridin-2-yl)acetamide]"
13,133,"CC(=O)Nc1cc(-c2cc(C(C)=O)c(-c3ccccc3Cl)o2)c(C)cn1 [Compound I-27, N-{4-[4-acetyl-5-(2-chlorophenyl)-2-furyl]-5-methylpyridin-2-yl}acetamide]"
14,81,"CC(=O)Nc1cc(-c2nc(-c3cc(CN4CCCC4)ccc3Cl)c(C(N)=O)o2)c(C)cn1 [Compound I-28, 2-(2-acetamido-5-methylpyridin-4-yl)-4-[2-chloro-5-(pyrrolidin-1-ylmethyl)phenyl]-1,3-oxazole-5-carboxamide]"
15,116,"COCCNC(=O)c1cc(-c2cc(NC(C)=O)ncc2C)oc1-c1ccccc1Cl [Compound I-29, 5-(2-acetamido-5-methylpyridin-4-yl)-2-(2-chlorophenyl)-N-(2-methoxyethyl)-3-furamide]"
16,114,"CC(=O)Nc1cc(-c2nc(-c3cc[nH]n3)c(-c3ccccc3Cl)o2)c(C)cn1 [Compound I-30, N-{4-[5-(2-chlorophenyl)-4-(1H-pyrazol-3-yl)-1,3-oxazol-2-yl]-5-methylpyridin-2-yl}acetamide]"
